Measurements reported in patent publication US20140309192A1, “MODULATORS OF THE G PROTEIN-COUPLED MAS RECEPTOR AND THE TREATMENT OF DISORDERS RELATED THERETO” (ARENA PHARMACEUTICALS, INC., priority 2011, published 2014).

These compounds were tested against T1, rat Mas receptor (Rattus norvegicus, UniProt P12526) (assay: HTRF IP1 assay, HEK293 cells expressing rat Mas receptor). Conditions: HTRF IP1 assay, rat Mas receptor (Table B.1); read-out: IC50.
T1 construct: expressed in transfected cells; host or cells: HEK293 (ATCC CRL-1573)
T1 sequence (P12526 1-324): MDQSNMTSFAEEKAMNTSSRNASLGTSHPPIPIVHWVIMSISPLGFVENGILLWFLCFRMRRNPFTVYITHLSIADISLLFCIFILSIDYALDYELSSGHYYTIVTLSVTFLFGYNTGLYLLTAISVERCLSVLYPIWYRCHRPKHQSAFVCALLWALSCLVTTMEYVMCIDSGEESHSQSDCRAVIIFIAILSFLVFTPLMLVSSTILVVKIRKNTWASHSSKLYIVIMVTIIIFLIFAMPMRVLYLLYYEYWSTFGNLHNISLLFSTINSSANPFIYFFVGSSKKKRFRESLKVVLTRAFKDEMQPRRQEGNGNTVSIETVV
Assay type: cell-based
From the text: (§1) Human and rat Mas receptors were either transiently or stably expressed in HEK293 cells. For transient transfections, human or rat Mas in pHM6 vector were transfected into HEK293 cells using Lipofectamine® (Invitrogen #18324-012). HEK293 cells transfected with empty pHM6 vector were used as a control. For generation of stable cell lines, cDNA expression plasmids encoding human or rat Mas genes and the neo^r gene were transfected into HEK293 cells (ATCC# CRL-1573) using Lipofectamine® (Invitrogen) according to the manufacturer's instructions. Stable receptor expressing pools were then generated over 3 weeks by standard techniques in the presence of 500 μg/mL Geneticin® (Gibco). Individual receptor stable pools were dilution cloned using standard techniques and clones were comparatively evaluated in inositol phosphate accumulation assays. Preferred clones were banked and cultured as needed. HEK293 cells were used as controls. The 384 well IP-One HTRF® Assay (Cisbio #62P1APEJ) was performed as described by the manufacturer's protocol. Cells were plated in at 100,000 cells per well in 15 μL DMEM (Gibco #11960) and incubated in a CO2 incubator at 37° C. for 2 h. Five μL of compounds diluted in 2× stimulation buffer plus 0.4% BSA (Sigma (#A3059) were added to each well and serial diluted IP1 standards (Cisbio #62IP1CDA) were also added to corresponding wells at this step. After the cells were incubated for 4 h in a CO2 incubator at 37° C., d2-labeled IP1 and cryptate-labeled anti-IP1 monoclonal antibody diluted in lysis buffer were added sequentially in 10 μL per well and the assay plates were kept in the dark at room temperature overnight. Ratiometric measurements of fluorescence emission at 665 nm and 620 nm were obtained using a Pherastar fluorometer (BMG Labtech). IP1 levels in each well were calculated according to the standard curves on each plate. IC50 values were obtained by fitting data to a nonlinear curve-fitting program (GraphPad Software, Inc., La Jolla Calif.).
O=C(Nc1ccc(Cl)cc1N1CCN(CCC(F)(F)F)CC1)c1ccc2c(c1)CN(CCCO)CC2 [Compound 16, N-(4-Chloro-2-(4-(3,3,3-trifluoropropyl)piperazin-1-yl)phenyl)-2-(3-hydroxypropyl)-1,2,3,4-tetrahydroisoquinoline-7-carboxamide] was tested, and the IC50 was 316 nM. CCOC(=O)CN1Cc2ccc(C(=O)Nc3ccc(Cl)cc3N3CCN(CCC(F)(F)F)CC3)cc2C1 [Compound 27, Ethyl 2-(5-(4-chloro-2-(4-(3,3,3-trifluoropropyl)piperazin-1-yl)phenylcarbamoyl)isoindolin-2-yl)acetate] gave an IC50 of 650 nM. O=C(Nc1ccc(Cl)cc1N1CCN(CCC(F)(F)F)CC1)c1ccc(N2CCCC2)cc1 [Compound 41, N-(4-Chloro-2-(4-(3,3,3-trifluoropropyl)piperazin-1-yl)phenyl)-4-(pyrrolidin-1-yl)benzamide] gave an IC50 of 582 nM. For O=C(Nc1ccc(Cl)cc1N1CCN(CCC(F)(F)F)CC1)c1ccc(CN2CCC(CO)CC2)cc1F [Compound 54, N-(4-Chloro-2-(4-(3,3,3-trifluoropropyl)piperazin-1-yl)phenyl)-2-fluoro-4-((4-(hydroxymethyl)piperidin-1-yl)methyl)benzamide], the IC50 was 497 nM.

These compounds were tested against T2, human Mas receptor (Homo sapiens, UniProt P04201) (assay: HTRF IP1 assay, HEK293 cells expressing human Mas receptor). Conditions: HTRF IP1 assay, human Mas receptor (Table B.2); read-out: IC50.
T2 construct: expressed in transfected cells; host or cells: HEK293 (ATCC CRL-1573)
T2 sequence (P04201 1-325): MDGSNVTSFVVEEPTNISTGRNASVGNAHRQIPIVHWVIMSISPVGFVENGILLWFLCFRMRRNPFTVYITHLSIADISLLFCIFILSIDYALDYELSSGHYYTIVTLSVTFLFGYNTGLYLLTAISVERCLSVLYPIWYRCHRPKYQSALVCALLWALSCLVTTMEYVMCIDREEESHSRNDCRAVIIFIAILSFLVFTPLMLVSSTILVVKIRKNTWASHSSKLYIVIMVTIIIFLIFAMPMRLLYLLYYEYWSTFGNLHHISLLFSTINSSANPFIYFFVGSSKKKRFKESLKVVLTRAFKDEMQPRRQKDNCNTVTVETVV
Assay type: cell-based
From the text: as §1
Compound O=C(Nc1ccc(Cl)cc1N1CCN(CCC(F)(F)F)CC1)c1ccc2c(c1)CNCC2 [Compound 13, N-(4-Chloro-2-(4-(3,3,3-trifluoropropyl)piperazin-1-yl)phenyl)-1,2,3,4-tetrahydroisoquinoline-7-carboxamide] has an IC50 of 88.2 nM. CC(C)(C)CCN1CCc2ccc(C(=O)Nc3ccc(Cl)cc3N3CCN(CCC(F)(F)F)CC3)cc2C1 [Compound 17, N-(4-Chloro-2-(4-(3,3,3-trifluoropropyl)piperazin-1-yl)phenyl)-2-(3,3-dimethylbutyl)-1,2,3,4-tetrahydroisoquinoline-7-carboxamide] gave an IC50 of 386 nM. NC(=O)CCN1CCc2ccc(C(=O)Nc3ccc(Cl)cc3N3CCN(CCC(F)(F)F)CC3)cc2C1 [Compound 20, 2-(3-Amino-3-oxopropyl)-N-(4-chloro-2-(4-(3,3,3-trifluoropropyl)piperazin-1-yl)phenyl)-1,2,3,4-tetrahydroisoquinoline-7-carboxamide] gave an IC50 of 610 nM. Compound NCc1ccc(C(=O)Nc2ccc(Cl)cc2N2CCN(CCC(F)(F)F)CC2)c(F)c1 [Compound 26, 4-(Aminomethyl)-N-(4-chloro-2-(4-(3,3,3-trifluoropropyl)piperazin-1-yl)phenyl)-2-fluorobenzamide] has an IC50 of 87.3 nM. Compound NC(=O)[C@@H]1CCCN1Cc1ccc(C(=O)Nc2ccc(Cl)cc2N2CCN(CCC(F)(F)F)CC2)c(F)c1 [Compound 56, (S)-1-(4-(4-Chloro-2-(4-(3,3,3-trifluoropropyl)piperazin-1-yl)phenylcarbamoyl)-3-fluorobenzyl)pyrrolidine-2-carboxamide] has an IC50 of 56.1 nM. For NC(=O)[C@H](CO)NCc1ccc(C(=O)Nc2ccc(Cl)cc2N2CCN(CCC(F)(F)F)CC2)c(F)c1 [Compound 76, (S)-4-((1-Amino-3-hydroxy-1-oxopropan-2-ylamino)methyl)-N-(4-chloro-2-(4-(3,3,3-trifluoropropyl)piperazin-1-yl)phenyl)-2-fluorobenzamide], the IC50 was 68.2 nM. O=C1CN(Cc2ccc(C(=O)Nc3ccc(Cl)cc3N3CCN(CCC(F)(F)F)CC3)c(F)c2F)CCN1 [Compound 167, N-(4-Chloro-2-(4-(3,3,3-trifluoropropyl)piperazin-1-yl)phenyl)-2,3-difluoro-4-((3-oxopiperazin-1-yl)methyl)benzamide] was tested, and the IC50 was 35.3 nM. With O=C(Nc1cc(Cl)c(Cl)cc1N1CCN(CCC(F)(F)F)CC1)c1ccc(CN2CCS(=O)(=O)CC2)c(F)c1F [Compound 186, N-(4,5-Dichloro-2-(4-(3,3,3-trifluoropropyl)piperazin-1-yl)phenyl)-2,3-difluoro-4-((1,1-dioxo-thiomorpholin-4-yl)methyl)benzamide] the IC50 was 49.1 nM. Compound O=C(Nc1ccc(Cl)cc1N1CCN(CCC(F)(F)F)CC1)c1ccc(CNCc2nn[nH]n2)c(F)c1F [Compound 200, 4-(((2H-Tetrazol-5-yl)methylamino)methyl)-N-(4-chloro-2-(4-(3,3,3-trifluoropropyl)piperazin-1-yl)phenyl)-2,3-difluorobenzamide] has an IC50 of 41.7 nM. O=C(O)CNCc1ccc(C(=O)Nc2ccc(Cl)cc2N2CCN(CCC(F)(F)F)CC2)c(F)c1F [Compound 202, 2-(4-(4-Chloro-2-(4-(3,3,3-trifluoropropyl)piperazin-1-yl)phenylcarbamoyl)-2,3-difluorobenzylamino)acetic acid] showed an IC50 of 92.1 nM. O=C(O)CC1CNCCN1Cc1ccc(C(=O)Nc2ccc(Cl)cc2N2CCN(CCC(F)(F)F)CC2)c(F)c1F (centres unmarked) [Compound 226, 2-(1-(4-(4-Chloro-2-(4-(3,3,3-trifluoropropyl)piperazin-1-yl)phenylcarbamoyl)-2,3-difluorobenzyl)piperazin-2-yl)acetic acid] was tested, and the IC50 was 93.9 nM. In the case of N#CCCNCc1ccc(C(=O)Nc2ccc(Cl)cc2N2CCN(CCC(F)(F)F)CC2)c(F)c1F [Compound 235, N-(4-Chloro-2-(4-(3,3,3-trifluoropropyl)piperazin-1-yl)phenyl)-4-((2-cyanoethylamino)methyl)-2,3-difluorobenzamide], the IC50 is reported as 39.1 nM. In the case of NC(=O)[C@@H](COP(=O)(O)O)NCc1ccc(C(=O)Nc2ccc(Cl)cc2N2CCN(CCC(F)(F)F)CC2)c(F)c1F [Compound 250, (R)-3-Amino-2-(4-(4-chloro-2-(4-(3,3,3-trifluoropropyl)piperazin-1-yl)phenylcarbamoyl)-2,3-difluorobenzylamino)-3-oxopropyl dihydrogenphosphate], the IC50 is reported as 5.7 nM. Compound O=C(Nc1ccc(Cl)cc1N1CCN(CCC(F)(F)F)CC1)c1ccc2c(c1)CN(C(=O)c1cccnc1)CC2 [Compound 259, N-(4-Chloro-2-(4-(3,3,3-trifluoropropyl)piperazin-1-yl)phenyl)-2-nicotinoyl-1,2,3,4-tetrahydroisoquinoline-7-carboxamide] has an IC50 of 108 nM. For NC1(C(=O)NCc2ccc(C(=O)Nc3ccc(Cl)cc3N3CCN(CCC(F)(F)F)CC3)c(F)c2F)CCSCC1 [Compound 284, 4-Amino-N-(4-(4-chloro-2-(4-(3,3,3-trifluoropropyl)piperazin-1-yl)phenylcarbamoyl)-2,3-difluorobenzyl)tetrahydro-2H-thiopyran-4-carboxamide], the IC50 was 57.2 nM. In the case of O=C(O)CCC(=O)NCc1ccc(C(=O)Nc2ccc(Cl)cc2N2CCN(CCC(F)(F)F)CC2)c(F)c1F [Compound 293, 4-(4-(4-Chloro-2-(4-(3,3,3-trifluoropropyl)piperazin-1-yl)phenylcarbamoyl)-2,3-difluorobenzylamino)-4-oxobutanoic acid], the IC50 is reported as 103 nM. Work on O=C(Nc1ccc(Cl)cc1N1CCN(CCC(F)(F)F)CC1)c1ccc(CNC(=O)[C@H]2CC[C@@H](O)CC2)c(F)c1F [Compound 330, N-(4-Chloro-2-(4-(3,3,3-trifluoropropyl)piperazin-1-yl)phenyl)-2,3-difluoro-4-(((1s,4s)-4-hydroxycyclohexanecarboxamido)methyl)benzamide] yielded an IC50 of 11.7 nM. In the case of O=C(Nc1ccc(Cl)cc1N1CCN(CCC(F)(F)F)CC1)c1ccc(CNC(=O)[C@H]2CC[C@@H](OP(=O)(O)O)CC2)c(F)c1F [Compound 392, (1s,4s)-4-(4-(4-Chloro-2-(4-(3,3,3-trifluoropropyl)piperazin-1-yl)phenylcarbamoyl)-2,3-difluorobenzylcarbamoyl)cyclohexyl dihydrogen phosphate], the IC50 is reported as 6.13 nM. In the case of O=C(Nc1ccc(Cl)cc1N1CCN(CCC(F)(F)F)CC1)c1ccc(CN2C(=O)CNC2=O)c(F)c1F [Compound 428, N-(4-Chloro-2-(4-(3,3,3-trifluoropropyl)piperazin-1-yl)phenyl)-4-((2,5-dioxoimidazolidin-1-yl)methyl)-2,3-difluorobenzamide], the IC50 is reported as 73.3 nM.
